Measurements from patent publication US8921376B2, “Pyrrolopyridines useful as inhibitors of protein kinase” (Vertex Pharmaceuticals Incorporated, priority 2005, dated 2014).

Legend:
Assay type in all cases: biochemical
Conditions in all cases: Table 6; enzyme inhibition data (Ki)
[1] = molecular target: ROCK I (Homo sapiens, UniProt Q13464); assay: ROCK-I inhibition assay (radioactive enzyme assay, MBP substrate)
Summary of the method: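 Human ROCK at 5 nM phosphorylated 27 μM myelin basic protein with 13 μM [γ-33P]ATP (final) in HEPES pH 7.5, MgCl2, NaCl, DTT and 1.5% DMSO. Reactions ran 2 h at room temperature before TCA quench and filter-plate scintillation counting. After background subtraction, data were fit to give Ki(app).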

[2] = molecular target: JAK2 (Homo sapiens, UniProt O60674); assay: JAK2 inhibition assay (as Example 3 with JAK-2 enzyme)
JAK2, sequence (O60674 whole entry): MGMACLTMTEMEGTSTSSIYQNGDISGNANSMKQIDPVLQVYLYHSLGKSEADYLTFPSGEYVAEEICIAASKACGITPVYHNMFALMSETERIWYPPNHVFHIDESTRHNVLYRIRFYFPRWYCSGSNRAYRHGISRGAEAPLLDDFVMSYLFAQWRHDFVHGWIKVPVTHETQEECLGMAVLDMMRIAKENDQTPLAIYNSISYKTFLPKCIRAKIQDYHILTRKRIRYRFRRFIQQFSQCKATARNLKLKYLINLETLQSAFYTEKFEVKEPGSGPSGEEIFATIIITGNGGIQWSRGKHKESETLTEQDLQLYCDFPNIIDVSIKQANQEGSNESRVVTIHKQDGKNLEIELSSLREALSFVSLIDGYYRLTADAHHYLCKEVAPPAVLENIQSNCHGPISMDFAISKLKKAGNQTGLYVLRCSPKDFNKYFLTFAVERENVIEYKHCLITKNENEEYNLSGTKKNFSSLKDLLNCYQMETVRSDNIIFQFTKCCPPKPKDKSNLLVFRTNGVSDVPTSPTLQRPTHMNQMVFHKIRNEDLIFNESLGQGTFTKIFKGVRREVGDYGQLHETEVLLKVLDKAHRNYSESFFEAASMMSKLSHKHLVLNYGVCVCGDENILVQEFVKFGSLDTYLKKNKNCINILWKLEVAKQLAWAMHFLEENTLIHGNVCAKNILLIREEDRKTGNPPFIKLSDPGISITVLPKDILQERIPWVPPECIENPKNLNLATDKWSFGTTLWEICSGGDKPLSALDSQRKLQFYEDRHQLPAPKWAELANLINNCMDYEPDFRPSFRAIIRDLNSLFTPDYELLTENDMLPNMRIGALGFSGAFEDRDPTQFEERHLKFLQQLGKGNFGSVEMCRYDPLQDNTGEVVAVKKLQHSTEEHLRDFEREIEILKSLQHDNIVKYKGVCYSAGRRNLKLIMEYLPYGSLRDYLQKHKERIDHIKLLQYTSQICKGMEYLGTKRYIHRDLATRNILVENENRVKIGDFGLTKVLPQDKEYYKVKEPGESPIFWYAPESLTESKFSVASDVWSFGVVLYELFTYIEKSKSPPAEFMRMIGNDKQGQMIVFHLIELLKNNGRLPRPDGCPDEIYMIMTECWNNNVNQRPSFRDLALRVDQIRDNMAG
Summary of the method: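 In HEPES pH 7.4 buffer with 10 mM MgCl2, 1 mM DTT, 25 mM NaCl and 0.01% BSA, JAK2 enzyme phosphorylated poly(Glu)4Tyr (final 15 μM) using 33P-ATP (final 12 μM) for 20 min at room temperature (25 °C). Reactions stopped with TCA; incorporated 33P measured by scintillation after filtration.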

[3] = molecular target: T1, JAK3 (Homo sapiens, UniProt P52333); assay: JAK3 inhibition assay (33P incorporation into poly(Glu)4Tyr)
T1 sequence (P52333 1-1124): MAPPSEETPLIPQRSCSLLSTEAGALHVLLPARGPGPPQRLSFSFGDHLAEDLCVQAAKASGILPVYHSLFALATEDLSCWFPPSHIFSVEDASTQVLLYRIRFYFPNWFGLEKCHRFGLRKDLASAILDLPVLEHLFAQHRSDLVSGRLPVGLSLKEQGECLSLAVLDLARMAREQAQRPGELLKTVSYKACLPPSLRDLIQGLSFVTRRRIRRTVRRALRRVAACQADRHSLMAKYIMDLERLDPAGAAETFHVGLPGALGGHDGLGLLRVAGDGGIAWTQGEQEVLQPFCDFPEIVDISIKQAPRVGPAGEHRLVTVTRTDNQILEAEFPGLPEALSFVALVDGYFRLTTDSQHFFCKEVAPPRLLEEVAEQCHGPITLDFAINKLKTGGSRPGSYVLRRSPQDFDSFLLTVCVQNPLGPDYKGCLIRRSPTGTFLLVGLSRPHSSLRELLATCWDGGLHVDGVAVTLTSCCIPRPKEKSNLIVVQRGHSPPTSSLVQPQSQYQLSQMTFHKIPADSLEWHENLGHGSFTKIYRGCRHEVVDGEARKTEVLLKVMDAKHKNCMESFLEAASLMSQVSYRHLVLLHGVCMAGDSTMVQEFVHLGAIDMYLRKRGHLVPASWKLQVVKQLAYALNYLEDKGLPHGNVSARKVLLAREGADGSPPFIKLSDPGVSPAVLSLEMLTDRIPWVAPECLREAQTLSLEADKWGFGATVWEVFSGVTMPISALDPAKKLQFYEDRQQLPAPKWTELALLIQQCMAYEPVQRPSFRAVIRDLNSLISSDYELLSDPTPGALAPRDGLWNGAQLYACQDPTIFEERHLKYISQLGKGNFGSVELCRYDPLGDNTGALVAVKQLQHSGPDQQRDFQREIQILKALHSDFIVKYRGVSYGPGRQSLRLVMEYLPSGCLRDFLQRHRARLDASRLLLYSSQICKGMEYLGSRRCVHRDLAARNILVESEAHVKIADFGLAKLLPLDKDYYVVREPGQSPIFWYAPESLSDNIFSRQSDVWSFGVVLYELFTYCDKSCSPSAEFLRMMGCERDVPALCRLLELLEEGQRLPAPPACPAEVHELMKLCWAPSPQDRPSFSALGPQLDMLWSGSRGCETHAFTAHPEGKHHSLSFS
Summary of the method: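 After TCA quench and filter harvest, scintillation counting of 33P measured phosphorylation of poly(Glu)4Tyr (1 μM) by 1 nM JAK3. The 20-min, 25° C. reaction contained 5 μM ATP (200 μCi/μmole) in pH 7.4 HEPES buffer with 10 mM MgCl2.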

ROCK I, sequence (Q13464 whole entry): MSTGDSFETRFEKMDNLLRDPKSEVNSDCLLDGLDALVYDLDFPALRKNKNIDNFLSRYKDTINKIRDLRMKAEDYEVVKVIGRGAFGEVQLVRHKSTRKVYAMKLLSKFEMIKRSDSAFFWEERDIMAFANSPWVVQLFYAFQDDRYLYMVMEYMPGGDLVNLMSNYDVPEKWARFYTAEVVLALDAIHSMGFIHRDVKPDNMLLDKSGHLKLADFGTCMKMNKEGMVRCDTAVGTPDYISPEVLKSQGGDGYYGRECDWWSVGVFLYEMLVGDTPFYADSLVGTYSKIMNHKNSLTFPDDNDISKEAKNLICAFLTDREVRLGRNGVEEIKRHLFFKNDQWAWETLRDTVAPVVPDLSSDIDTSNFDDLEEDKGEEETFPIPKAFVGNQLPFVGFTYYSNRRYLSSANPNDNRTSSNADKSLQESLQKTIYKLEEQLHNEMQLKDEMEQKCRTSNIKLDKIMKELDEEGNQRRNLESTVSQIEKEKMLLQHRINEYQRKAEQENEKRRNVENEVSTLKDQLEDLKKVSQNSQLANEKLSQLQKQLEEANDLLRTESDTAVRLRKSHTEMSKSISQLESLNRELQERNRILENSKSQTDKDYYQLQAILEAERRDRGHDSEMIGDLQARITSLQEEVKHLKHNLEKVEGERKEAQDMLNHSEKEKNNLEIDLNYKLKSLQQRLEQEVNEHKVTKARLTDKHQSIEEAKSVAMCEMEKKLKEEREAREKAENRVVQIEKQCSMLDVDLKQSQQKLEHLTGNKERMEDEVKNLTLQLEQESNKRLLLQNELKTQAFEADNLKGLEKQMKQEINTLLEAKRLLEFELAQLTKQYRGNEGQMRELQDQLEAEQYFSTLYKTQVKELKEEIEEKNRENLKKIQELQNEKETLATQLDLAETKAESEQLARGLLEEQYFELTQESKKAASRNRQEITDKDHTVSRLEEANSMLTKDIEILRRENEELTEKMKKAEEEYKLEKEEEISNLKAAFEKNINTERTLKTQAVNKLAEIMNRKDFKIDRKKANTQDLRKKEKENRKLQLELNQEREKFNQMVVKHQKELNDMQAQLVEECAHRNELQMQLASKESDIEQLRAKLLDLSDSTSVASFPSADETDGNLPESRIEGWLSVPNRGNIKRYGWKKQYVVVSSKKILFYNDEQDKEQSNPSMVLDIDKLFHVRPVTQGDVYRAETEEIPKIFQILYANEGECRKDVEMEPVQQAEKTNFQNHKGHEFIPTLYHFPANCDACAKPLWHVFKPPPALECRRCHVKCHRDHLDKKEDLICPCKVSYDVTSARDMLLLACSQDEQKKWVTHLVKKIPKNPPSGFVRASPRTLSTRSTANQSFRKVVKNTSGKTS

| SMILES | Ki [1] | Ki [2] | Ki [3] |
| --- | --- | --- | --- |
| c1cc(-c2cn[nH]c2)c2cc[nH]c2n1 [compound 250] | < 500 nM | < 500 nM | < 500 nM |
| O=C(NCCC(F)(F)F)c1cccc(-c2ccnc3[nH]ccc23)c1 [compound 252] | 500 to 5000 nM | 500 to 5000 nM | < 500 nM |
| O=C(NCC(F)(F)F)c1ccccc1-c1ccnc2[nH]ccc12 [compound 253] | > 4000 nM | > 5000 nM | > 5000 nM |
| CCNC(=O)c1cccc(-c2ccnc3[nH]ccc23)c1 [compound 255] | 500 to 5000 nM | 500 to 5000 nM | 500 to 5000 nM |
| CCCNC(=O)c1cccc(-c2ccnc3[nH]ccc23)c1 [compound 256] | 500 to 5000 nM | > 5000 nM | 500 to 5000 nM |
| CCCNC(=O)c1ccccc1-c1ccnc2[nH]ccc12 [compound 258] | > 4000 nM | > 5000 nM | > 5000 nM |
| O=C(NCC(F)(F)F)c1cc(-c2ccnc3[nH]ccc23)c[nH]1 [compound 259] | < 500 nM | < 500 nM | < 500 nM |
| O=C(NCC(F)(F)F)c1ccc(-c2ccnc3[nH]ccc23)s1 [compound 260] | < 500 nM | < 500 nM | < 500 nM |
| CCN(C)C(=O)c1cc(-c2ccnc3[nH]ccc23)c[nH]1 [compound 261] | < 500 nM | < 500 nM | < 500 nM |
| CC(C)(C(=O)NCC(F)(F)F)c1cccc(-c2ccnc3[nH]ccc23)n1 [compound 265] | < 500 nM | < 500 nM | < 500 nM |
| O=C(Cc1nc(-c2ccnc3[nH]ccc23)ncc1F)NCC(F)(F)F [compound 266] | 500 to 5000 nM | < 500 nM | 500 to 5000 nM |
| CNC(=O)c1ccc(-c2ccnc3[nH]ccc23)cc1 [compound 272] | < 500 nM | < 500 nM | < 500 nM |
| CCNC(=O)c1ccc(-c2ccnc3[nH]ccc23)cc1 [compound 273] | 500 to 5000 nM | < 500 nM | 500 to 5000 nM |
| CNC(=O)c1cc(-c2c(Cl)cnc3[nH]ccc23)c[nH]1 [compound 277] | 500 to 5000 nM | < 500 nM | < 500 nM |
| CCNC(=O)c1cc(-c2c(Cl)cnc3[nH]ccc23)c[nH]1 [compound 278] | > 4000 nM | < 500 nM | < 500 nM |
| CCCNC(=O)c1cc(-c2c(Cl)cnc3[nH]ccc23)c[nH]1 [compound 279] | 500 to 5000 nM | < 500 nM | < 500 nM |
| CC(C)NC(=O)c1cc(-c2c(Cl)cnc3[nH]ccc23)c[nH]1 [compound 280] | 500 to 5000 nM | < 500 nM | < 500 nM |
| CCNC(=O)c1cc(-c2ccnc3[nH]ccc23)c[nH]1 [compound 282] | < 500 nM | < 500 nM | < 500 nM |
| CCC(CC)NC(=O)c1cc(-c2ccnc3[nH]ccc23)c[nH]1 [compound 284] | < 500 nM | < 500 nM | < 500 nM |
| O=C(NC1CC1)c1cc(-c2ccnc3[nH]ccc23)c[nH]1 [compound 285] | < 500 nM | < 500 nM | < 500 nM |
| O=C(NCC1CC1)c1cc(-c2ccnc3[nH]ccc23)c[nH]1 [compound 286] | < 500 nM | < 500 nM | < 500 nM |
| O=C(NC1CCC1)c1cc(-c2ccnc3[nH]ccc23)c[nH]1 [compound 287] | < 500 nM | < 500 nM | < 500 nM |
| O=C(NC1CCCCC1)c1cc(-c2ccnc3[nH]ccc23)c[nH]1 [compound 288] | < 500 nM | < 500 nM | < 500 nM |
| CC[C@H](C)NC(=O)c1cc(-c2ccnc3[nH]ccc23)c[nH]1 [compound 290] | < 500 nM | < 500 nM | 500 to 5000 nM |
| O=C(NCC(F)F)c1cc(-c2ccnc3[nH]ccc23)c[nH]1 [compound 292] | < 500 nM | < 500 nM | < 500 nM |
| N#CCNC(=O)c1cc(-c2ccnc3[nH]ccc23)c[nH]1 [compound 295] | < 500 nM | < 500 nM | < 500 nM |
| N#CCCNC(=O)c1cc(-c2ccnc3[nH]ccc23)c[nH]1 [compound 296] | < 500 nM | < 500 nM | < 500 nM |

Continued, values first:

| Ki [1] | Ki [2] | Ki [3] | SMILES |
| --- | --- | --- | --- |
| < 500 nM | 500 to 5000 nM | < 500 nM | O=C(NCC(F)(F)F)c1cccc(-c2ccnc3[nH]ccc23)c1 [compound 251] |
| > 4000 nM | > 5000 nM | > 5000 nM | O=C(NCCC(F)(F)F)c1ccccc1-c1ccnc2[nH]ccc12 [compound 254] |
| > 4000 nM | > 5000 nM | > 5000 nM | CCNC(=O)c1ccccc1-c1ccnc2[nH]ccc12 [compound 257] |
| < 500 nM | < 500 nM | < 500 nM | CCN(CC)C(=O)c1cc(-c2ccnc3[nH]ccc23)c[nH]1 [compound 262] |
| < 500 nM | < 500 nM | < 500 nM | O=C(NC1CCCC1)c1cc(-c2ccnc3[nH]ccc23)c[nH]1 [compound 263] |
| < 500 nM | < 500 nM | < 500 nM | CC(C)NC(=O)c1cc(-c2ccnc3[nH]ccc23)c[nH]1 [compound 264] |
| < 500 nM | < 500 nM | < 500 nM | CCCNC(=O)c1ccc(-c2ccnc3[nH]ccc23)cc1 [compound 267] |
| < 500 nM | < 500 nM | < 500 nM | O=C(NCCC(F)(F)F)c1ccc(-c2ccnc3[nH]ccc23)cc1 [compound 268] |
| < 500 nM | < 500 nM | < 500 nM | O=C(NCC(F)(F)F)c1ccc(-c2ccnc3[nH]ccc23)cc1 [compound 269] |
| 500 to 5000 nM | < 500 nM | 500 to 5000 nM | O=C(NC1CC1)c1ccc(-c2ccnc3[nH]ccc23)cc1 [compound 270] |
| < 500 nM | < 500 nM | < 500 nM | O=C(Nc1ccccc1)c1ccc(-c2ccnc3[nH]ccc23)cc1 [compound 271] |
| > 4000 nM | 500 to 5000 nM | < 500 nM | O=C(O)c1cc(-c2ccnc3[nH]ccc23)c[nH]1 [compound 274] |
| < 500 nM | < 500 nM | < 500 nM | O=C(Nc1ccccc1)c1cc(-c2ccnc3[nH]ccc23)c[nH]1 [compound 275] |
| 500 to 5000 nM | < 500 nM | < 500 nM | O=C(NCC(F)(F)F)c1cc(-c2c(Cl)cnc3[nH]ccc23)c[nH]1 [compound 276] |
| 500 to 5000 nM | < 500 nM | < 500 nM | O=C(NC1CC1)c1cc(-c2c(Cl)cnc3[nH]ccc23)c[nH]1 [compound 281] |
| < 500 nM | < 500 nM | < 500 nM | CCCNC(=O)c1cc(-c2ccnc3[nH]ccc23)c[nH]1 [compound 283] |
| < 500 nM | < 500 nM | < 500 nM | CC[C@@H](C)NC(=O)c1cc(-c2ccnc3[nH]ccc23)c[nH]1 [compound 289] |
| < 500 nM | < 500 nM | < 500 nM | CC(C)CNC(=O)c1cc(-c2ccnc3[nH]ccc23)c[nH]1 [compound 291] |
| < 500 nM | < 500 nM | < 500 nM | O=C(NCCC(F)(F)F)c1cc(-c2ccnc3[nH]ccc23)c[nH]1 [compound 293] |
| < 500 nM | < 500 nM | < 500 nM | C#CCNC(=O)c1cc(-c2ccnc3[nH]ccc23)c[nH]1 [compound 294] |
